For two molecules, IC50 results are on record in ChEMBL document CHEMBL5727275, “Tetrahydronaphthyl urea derivative” (2019).

One may read the IC50 as the concentration at which inhibition is half-maximal.

The target of the assay is High affinity nerve growth factor receptor (Homo sapiens, UniProt P04629). The assay can be described thus: Evaluation of Binding Activity for Human TrkA Protein: Measurement was carried out using TrkA LanthaScreen (registered trademark) Eu Kinase Binding Assay (ThermoFisher SCIENTIFIC). To a 384 well plate (Corning), 2.5 μL of the test compound having various concentrations and diluted with Kinase buffer (ThermoFisher SCIENTIFIC) and 2.5 μL of 15 nM TrkA enzyme (ThermoFisher SCIENTIFIC) were added. Moreover, […] Eu-anti-His Tag antibody (ThermoFisher SCIENTIFIC) and 5 μL of 30 nM Kinase (registered trademark) Tracer 236 (ThermoFisher SCIENTIFIC) were added, followed by reaction at room temperature for 60 minutes. After the reaction, the fluorescence intensity of Europium (Emission wavelength 615 nm) and TR-FRET (Emission wavelength 665 nm) with an excitation wavelength of 340 nm were measured with EnVision 2100 (PerkinElmer) to calculate the fluorescence ratio as the amount of the test compound and the TrkA enzyme bonded. The inhibitory activity (IC50 value) of each test compound was calculated with the fluorescence ratio of the well to which a solvent was added instead of the test compound being 0% and the fluorescence ratio of the well without addition of the TrkA protein being 100%.

The structures appear in SMILES notation.

Chain of High affinity nerve growth factor receptor (P04629 whole entry): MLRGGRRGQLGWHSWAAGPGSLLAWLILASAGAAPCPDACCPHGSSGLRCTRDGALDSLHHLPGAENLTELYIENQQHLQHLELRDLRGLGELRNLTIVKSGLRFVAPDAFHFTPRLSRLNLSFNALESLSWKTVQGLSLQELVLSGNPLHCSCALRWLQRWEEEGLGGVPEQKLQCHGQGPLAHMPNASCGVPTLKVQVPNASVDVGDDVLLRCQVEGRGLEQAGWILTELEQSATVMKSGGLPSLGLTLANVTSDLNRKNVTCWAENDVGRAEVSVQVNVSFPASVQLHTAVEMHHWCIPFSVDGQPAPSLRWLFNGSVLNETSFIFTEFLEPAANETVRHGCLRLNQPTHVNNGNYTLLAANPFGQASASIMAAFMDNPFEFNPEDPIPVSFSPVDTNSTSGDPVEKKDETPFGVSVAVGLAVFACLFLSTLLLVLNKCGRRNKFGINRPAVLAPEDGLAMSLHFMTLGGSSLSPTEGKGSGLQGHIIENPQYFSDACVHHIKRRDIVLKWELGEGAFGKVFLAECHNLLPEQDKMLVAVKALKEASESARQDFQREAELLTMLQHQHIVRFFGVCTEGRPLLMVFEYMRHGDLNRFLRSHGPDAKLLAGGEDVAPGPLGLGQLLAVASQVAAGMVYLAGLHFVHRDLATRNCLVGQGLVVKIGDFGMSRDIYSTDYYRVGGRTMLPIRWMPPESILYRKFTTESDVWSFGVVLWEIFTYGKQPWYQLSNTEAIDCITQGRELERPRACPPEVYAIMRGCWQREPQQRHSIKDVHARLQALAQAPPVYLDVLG

For the molecule `Cc1ncc(-c2nc(-c3ccccc3)c(NC(=O)N[C@H]3c4ccc(F)cc4C(C)(C)C[C@H]3O)cc2C)cn1`, the concentration for half-maximal inhibition (IC50) was below 50 nM.

Consider `Cc1ncc(-c2nc(-c3ccccc3)c(NC(=O)N[C@H]3c4cc(F)ccc4C(C)(C)C[C@H]3O)cc2C)cn1`, for which the IC50 was below 50 nM.
